Earlier results in US9687482B2, “Stable pharmaceutical composition comprising solifenacin, and method for preparing the same” (CJ HEALTHCARE CORPORATION, priority 2014, dated 2017).

Biological target: muscarinic M3 receptors (Homo sapiens, UniProt P20309)
Details: reported

Chain of muscarinic M3 receptors (P20309 whole entry): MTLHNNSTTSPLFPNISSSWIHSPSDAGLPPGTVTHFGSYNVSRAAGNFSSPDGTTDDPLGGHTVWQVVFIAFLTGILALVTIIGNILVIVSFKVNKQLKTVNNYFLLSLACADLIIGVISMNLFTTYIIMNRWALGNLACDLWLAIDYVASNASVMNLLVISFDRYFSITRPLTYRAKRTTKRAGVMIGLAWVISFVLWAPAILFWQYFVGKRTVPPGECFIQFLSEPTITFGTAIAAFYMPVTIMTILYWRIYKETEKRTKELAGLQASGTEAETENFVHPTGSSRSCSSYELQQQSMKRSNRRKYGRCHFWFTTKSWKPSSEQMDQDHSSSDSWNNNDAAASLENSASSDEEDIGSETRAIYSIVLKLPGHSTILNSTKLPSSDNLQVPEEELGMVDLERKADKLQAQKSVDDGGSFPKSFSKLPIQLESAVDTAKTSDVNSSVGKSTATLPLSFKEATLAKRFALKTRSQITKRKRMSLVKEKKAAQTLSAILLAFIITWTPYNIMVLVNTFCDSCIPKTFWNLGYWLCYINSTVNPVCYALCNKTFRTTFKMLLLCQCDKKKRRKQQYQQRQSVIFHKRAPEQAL

O=C(O[C@H]1CN2CCC1CC2)N1CCc2ccccc2[C@@H]1c1ccccc1 [Solifenacin, (1R,3′R)-3′-quinuclidinyl-1-phenyl-1,2,3,4-tetrahydro-2-isoquinoline carboxylate]
antagonistic action against muscarinic M3 receptors: excellent selective antagonistic action
